Assay results taken from ChEMBL document CHEMBL1201862, “PubChem BioAssay data set” (2004).
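Five compound concentrations were applied to cells in 96-well plates for 48 hours; endpoints were derived by simple linear interpolation of the resulting dose-response curve. GI50 = concentration required for 50% inhibition of growth.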 Activity calls are given as the source filed them. No stated cut-off is given here; in the data, active = GI50 up to about 1.1 µM and inactive = higher.

Key:
Experiment in all cases: inhibition of tumour cell growth, NCI panel, 48 h
[1] = tested on: COLO 205
[2] = tested on: SN12C
[3] = tested on: EKVX
[4] = tested on: HOP-62
[5] = tested on: U-251
[6] = tested on: MCF7
[7] = tested on: ACHN
[8] = tested on: HCT-15
[9] = tested on: NCI-H460
[10] = tested on: NCI/ADR-RES
[11] = tested on: K562
[12] = tested on: UO-31
[13] = tested on: DU-145
[14] = tested on: SF-268
[15] = tested on: MOLT-4
[16] = tested on: MDA-N
[17] = tested on: Malme-3M
[18] = tested on: SK-MEL-2
[19] = tested on: NCI-H522

Compound: CC(C)(C)c1ccc2c(c1)C(=O)c1ccccc1C2=O
- GI50 [1]: 25 µM (inactive)
- GI50 [2]: 85.3 µM (inactive)
- GI50 [3]: 19 µM (inactive)
- GI50 [4]: > 100 µM (inactive)
- GI50 [5]: 50 µM (inactive)
- GI50 [6]: 20.6 µM (inactive)
- GI50 [7]: 37.9 µM (inactive)
- GI50 [8]: 39.7 µM
- GI50 [9]: 31.3 µM (inactive)
- GI50 [10]: 32.7 µM (inactive)
- GI50 [11]: 58.1 µM (inactive)
- GI50 [12]: > 100 µM (inactive)
- GI50 [13]: > 100 µM (inactive)
- GI50 [14]: 39.4 µM (inactive)
- GI50 [15]: 24.6 µM (inactive)
- GI50 [16]: 37.5 µM (inactive)
- GI50 [17]: > 100 µM (inactive)

Compound: O=c1[nH]c(=O)c2ncn(-c3ccc([N+](=O)[O-])cn3)c2[nH]1
- GI50 [1]: > 100 µM (inactive)
- GI50 [2]: > 100 µM (inactive)
- GI50 [3]: > 100 µM (inactive)
- GI50 [4]: > 100 µM (inactive)
- GI50 [5]: > 100 µM (inactive)
- GI50 [6]: > 100 µM (inactive)
- GI50 [7]: > 100 µM (inactive)
- GI50 [8]: > 100 µM
- GI50 [9]: > 100 µM (inactive)
- GI50 [18]: > 100 µM (inactive)
- GI50 [10]: > 100 µM (inactive)
- GI50 [11]: > 100 µM (inactive)
- GI50 [12]: > 100 µM (inactive)
- GI50 [13]: > 100 µM (inactive)
- GI50 [14]: > 100 µM (inactive)
- GI50 [15]: > 100 µM (inactive)
- GI50 [17]: 2.79 µM (inactive)

Compound: CCOC(=O)c1nc2ccccc2nc1NCc1ccc(Cl)cc1Cl
- GI50 [1]: > 100 µM (inactive)
- GI50 [19]: > 100 µM (inactive)
- GI50 [3]: > 100 µM (inactive)
- GI50 [4]: > 100 µM (inactive)
- GI50 [5]: > 100 µM (inactive)
- GI50 [6]: > 100 µM (inactive)
- GI50 [7]: > 100 µM (inactive)
- GI50 [8]: > 100 µM
- GI50 [9]: 35 µM (inactive)
- GI50 [18]: > 100 µM (inactive)
- GI50 [10]: > 100 µM (inactive)
- GI50 [11]: > 100 µM (inactive)
- GI50 [12]: > 100 µM (inactive)
- GI50 [14]: > 100 µM (inactive)
- GI50 [15]: > 100 µM (inactive)
- GI50 [16]: 96.8 µM (inactive)
- GI50 [17]: > 100 µM (inactive)

Compound: O=C(NCc1ccncc1)C1COc2cc(-c3cc(=O)c4ccccc4o3)ccc2O1 (stereo unspecified)
- GI50 [19]: > 100 µM (inactive)
- GI50 [2]: > 100 µM (inactive)
- GI50 [3]: > 100 µM (inactive)
- GI50 [4]: > 100 µM (inactive)
- GI50 [5]: > 100 µM (inactive)
- GI50 [7]: > 100 µM (inactive)
- GI50 [8]: > 100 µM
- GI50 [9]: > 100 µM (inactive)
- GI50 [18]: > 100 µM (inactive)
- GI50 [11]: > 100 µM (inactive)
- GI50 [12]: > 100 µM (inactive)
- GI50 [15]: > 100 µM (inactive)
- GI50 [17]: > 100 µM (inactive)

Compound: COC(=O)C1=C(N)C2=C(N)Oc3ccccc3C2CC1=C(C#N)C#N (stereo unspecified)
- GI50 [1]: 22.5 µM (inactive)
- GI50 [19]: 15.8 µM (inactive)
- GI50 [2]: 29 µM (inactive)
- GI50 [3]: 29.1 µM (inactive)
- GI50 [4]: 33.5 µM (inactive)
- GI50 [5]: 35.5 µM (inactive)
- GI50 [6]: 12.7 µM (inactive)
- GI50 [7]: 24.5 µM (inactive)
- GI50 [8]: 17.2 µM
- GI50 [18]: 25.9 µM (inactive)
- GI50 [10]: 20.2 µM (inactive)
- GI50 [11]: 19.6 µM (inactive)
- GI50 [12]: 19.2 µM (inactive)
- GI50 [13]: 26.5 µM (inactive)
- GI50 [14]: 29.7 µM (inactive)
- GI50 [15]: 33.4 µM (inactive)
- GI50 [17]: 21.6 µM (inactive)

Compound: CC(=O)C1=C(C)N2C(=NC3=C(CCc4ccccc43)C2c2ccc(F)cc2)S1 (stereo unspecified)
- GI50 [1]: 58.1 µM (inactive)
- GI50 [2]: 51.3 µM (inactive)
- GI50 [3]: 24 µM (inactive)
- GI50 [4]: 84.1 µM (inactive)
- GI50 [5]: 84.7 µM (inactive)
- GI50 [6]: 60.5 µM (inactive)
- GI50 [7]: 77.6 µM (inactive)
- GI50 [18]: > 100 µM (inactive)
- GI50 [10]: 37.3 µM (inactive)
- GI50 [11]: 31.3 µM (inactive)
- GI50 [12]: 52.7 µM (inactive)
- GI50 [13]: > 100 µM (inactive)
- GI50 [14]: 61 µM (inactive)
- GI50 [15]: 2.59 µM (inactive)
- GI50 [16]: 55.6 µM (inactive)

Compound: COC1OC(Cc2nnc(C)o2)C(OCc2ccccc2)C(OCc2ccccc2)C1OCc1ccccc1 (stereo unspecified)
- GI50 [1]: 20.7 µM (inactive)
- GI50 [19]: 19.4 µM (inactive)
- GI50 [2]: 28.3 µM (inactive)
- GI50 [3]: 12.7 µM (inactive)
- GI50 [4]: 52.1 µM (inactive)
- GI50 [5]: 38.4 µM (inactive)
- GI50 [6]: 20.3 µM (inactive)
- GI50 [7]: 26.6 µM (inactive)
- GI50 [8]: 35.9 µM
- GI50 [9]: 26.4 µM (inactive)
- GI50 [18]: 14.5 µM (inactive)
- GI50 [10]: 24.3 µM (inactive)
- GI50 [11]: 20.9 µM (inactive)
- GI50 [12]: 33.1 µM (inactive)
- GI50 [13]: 40.8 µM (inactive)
- GI50 [14]: 21.5 µM (inactive)
- GI50 [15]: 16 µM (inactive)
- GI50 [17]: 15.5 µM (inactive)

Compound: O=C1CSC(c2c[nH]c3ccccc23)N1c1cccc(Cl)c1 (stereo unspecified)
- GI50 [1]: 50.7 µM (inactive)
- GI50 [2]: 52.2 µM (inactive)
- GI50 [3]: > 100 µM (inactive)
- GI50 [4]: 54.7 µM (inactive)
- GI50 [5]: 37.2 µM (inactive)
- GI50 [6]: 39.6 µM (inactive)
- GI50 [7]: 24.2 µM (inactive)
- GI50 [8]: 40.4 µM
- GI50 [9]: 37.6 µM (inactive)
- GI50 [18]: 30.1 µM (inactive)
- GI50 [10]: 36.1 µM (inactive)
- GI50 [11]: 41 µM (inactive)
- GI50 [12]: 84.5 µM (inactive)
- GI50 [13]: > 100 µM (inactive)
- GI50 [14]: 89.5 µM (inactive)
- GI50 [15]: 38.5 µM (inactive)
- GI50 [16]: 36.9 µM (inactive)
